Results published in patent US10604512B2, “3-(1H-indol-2-yl)-1H-indazoles and therapeutic uses thereof” (Samumed, LLC, priority 2015, dated 2020).

Test system: primary human mesenchymal stem cells (hMSCs)
Experiment: Induction of chondrogenesis in primary human mesenchymal stem cells (nodule imaging, Rhodamine B / Nile Red)
Format: cell-based
Conditions: for EC50: concentration required to induce 50% levels of chondrogenesis vs TGF-β3 positive control, read-out: Conc (nM) of 50% TGF-β3 activity; for Emax: maximum chondrogenesis activity relative to TGF-β3 (10 ng/mL) positive control, read-out: Max. Activity as % TGF-β3 activity
Procedure: Representative compounds were screened using primary human mesenchymal stem cells (hMSCs) to determine their ability to induce chondrogenesis (process by which cartilage is developed).
Primary human mesenchymal stem cells (hMSCs) were purchased from Lonza (Walkersville, Md.) and expanded in Mesenchymal Stem Cell Growth Media (Lonza). Cells between passage 3 and 6 were used for the experiments.
Each compound was dissolved in DMSO as a 10 mM stock and used to prepare compound source plates. For the 96 well assay, serial dilution (1:3, 6-point dose-response curves from 2700 nM to 10 nM) and compound transfer was performed using the ECHO 550 (Labcyte, Sunnyvale, Calif.) into 96-well clear bottom assay plates (Greiner Bio-One) with appropriate DMSO backfill for a final DMSO concentration of 0.03%. hMSCs were plated at 20,000 cells/well in 250 μL/well Incomplete Chondrogenic Induction Medium (Lonza; DMEM, dexamethasone, ascorbate, insulin-transferrin-selenium [ITS supplement], gentamycin-amphotericin [GA-1000], sodium pyruvate, proline and L-glutamine). TGF-β3 (10 ng/mL) was used as a positive control for differentiation while negative control wells were treated with 75 nL DMSO for normalization and calculating EC50 values. For the 384 well assay, serial dilution (1:3, 8-point dose-response curves from 5000 nM to 2.2 nM) and compound transfer was performed using the ECHO 550 (Labcyte, Sunnyvale, Calif.) into 384-well clear bottom assay plates (Greiner Bio-One) with appropriate DMSO backfill for a final DMSO concentration of 0.03%. hMSCs were plated at 8,000 cells/well in 80 μL/well Incomplete Chondrogenic Induction Medium (Lonza; DMEM, dexamethasone, ascorbate, insulin-transferrin-selenium [ITS supplement], gentamycin-amphotericin [GA-1000], sodium pyruvate, proline and L-glutamine). TGF-β3 (10 ng/mL) was used as a positive control for differentiation while negative control wells were treated with 25 nL DMSO for normalization and calculating EC50 values. Cells were incubated at 37° C. and 5% CO2 for 6 days. To image chondrogenic nodules, the cells were fixed using 4% formaldehyde (Electron Microscopy Sciences), and stained with 2 μg/mL Rhodamine B (Sigma-Aldrich) and 20 μM Nile Red (Sigma-Aldrich) [Johnson K., et. al, A Stem CellBased Approach to Cartilage Repair, Science, (2012), 336(6082), 717-721]. The nodules imaged (25 images per well for 96 well plates and 9 images per well for 384 well plates at 10× magnification) by excitation at 531 nm and emission at 625 nm and quantified using the CellInsight CX5 (Thermo Scientific). Area of nodules in each well was normalized to the average of 3 DMSO treated wells on the same plate using Excel (Microsoft Inc.). The normalized averages (fold change over DMSO) of 2 or 3 replicate wells for each compound concentration were calculated. Due to solubility limitations of some of the compounds, curve fitting was incomplete leading to inaccurate EC50 determinations.
Using TGF-β3 as a positive control, the concentration of representative compounds required to induce 50% levels of chondrogenesis is reported. In addition, the maximum activity of each compound and the respective dose that each compound reached maximum chondrogenesis activity is reported.

SMILES | EC50 [nM] | Emax [%]
Fc1ccc(-c2cccc3[nH]c(-c4n[nH]c5ccc(-c6cncc(CN7CCCC7)c6)cc45)cc23)cc1 [Compound 42, 3-(4-(4-Fluorophenyl)-1H-indol-2-yl)-5-(5-(pyrrolidin-1-ylmethyl)pyridin-3-yl)-1H-indazole] | 30 | 197
Nc1cncc(-c2ccc3[nH]nc(-c4cc5c(-c6ccccc6F)cccc5[nH]4)c3c2)c1 [Compound 59, 5-(3-(4-(2-Fluorophenyl)-1H-indol-2-yl)-1H-indazol-5-yl)pyridin-3-amine] | 10 | 197
CCC(=O)Nc1cncc(-c2ccc3[nH]nc(-c4cc5c(-c6cccnc6)cccc5[nH]4)c3c2)c1 [Compound 85, N-(5-(3-(4-(Pyridin-3-yl)-1H-indol-2-yl)-1H-indazol-5-yl)pyridin-3-yl) propionamide] | 10 | 197
c1cncc(-c2ccc3[nH]nc(-c4cc5c(-c6cccnc6)cccc5[nH]4)c3c2)c1 [Compound 88, 5-(Pyridin-3-yl)-3-(4-(pyridin-3-yl)-1H-indol-2-yl)-1H-indazole] | 10 | 183
CC(C)C(=O)Nc1cncc(-c2ccc3[nH]nc(-c4cc5c(-c6cccnc6)cccc5[nH]4)c3c2)c1 [Compound 93, N-(5-(3-(4-(Pyridin-3-yl)-1H-indol-2-yl)-1H-indazol-5-yl)pyridin-3-yl) isobutyramide] | 30 | 199
c1cncc(-c2cccc3[nH]c(-c4n[nH]c5ccc(-c6cncnc6)cc45)cc23)c1 [Compound 111, 3-(4-(Pyridin-3-yl)-1H-indol-2-yl)-5-(pyrimidin-5-yl)-1H-indazole] | 10 | 202
Cc1ccncc1-c1ccc2[nH]nc(-c3cc4c(-c5ccncc5)cccc4[nH]3)c2c1 [Compound 117, 5-(4-Methylpyridin-3-yl)-3-(4-(pyridin-4-yl)-1H-indol-2-yl)-1H-indazole] | 10 | 190
CCNCc1cncc(-c2ccc3[nH]nc(-c4cc5c(-c6ccncc6)cccc5[nH]4)c3c2)c1 [Compound 118, N-((5-(3-(4-(Pyridin-4-yl)-1H-indol-2-yl)-1H-indazol-5-yl)pyridin-3-yl)methyl)ethanamine] | 30 | 199
O=C(Nc1cncc(-c2ccc3[nH]nc(-c4cc5c(-c6ccncc6)cccc5[nH]4)c3c2)c1)C1CC1 [Compound 132, N-(5-(3-(4-(Pyridin-4-yl)-1H-indol-2-yl)-1H-indazol-5-yl)pyridin-3-yl) cyclopropanecarboxamide] | 10 | 219
Nc1cncc(-c2ccc3[nH]nc(-c4cc5c(-c6ccccn6)cccc5[nH]4)c3c2)c1 [Compound 143, 5-(3-(4-(Pyridin-2-yl)-1H-indol-2-yl)-1H-indazol-5-yl)pyridin-3-amine] | 10 | 224
c1ccc(-c2cccc3[nH]c(-c4n[nH]c5ccc(-c6cncc(CN7CCCC7)c6)cc45)cc23)nc1 [Compound 154, 3-(4-(Pyridin-2-yl)-1H-indol-2-yl)-5-(5-(pyrrolidin-1-ylmethyl)pyridin-3-yl)-1H-indazole] | 10 | 180
c1ccc(-c2cccc3[nH]c(-c4n[nH]c5ccc(-c6cncnc6)cc45)cc23)nc1 [Compound 167, 3-(4-(Pyridin-2-yl)-1H-indol-2-yl)-5-(pyrimidin-5-yl)-1H-indazole] | 10 | 203
CC(C)C(=O)Nc1cncc(-c2ccc3[nH]nc(-c4cc5c(N6CCN(C)CC6)cccc5[nH]4)c3c2)c1 [Compound 233, N-(5-(3-(4-(4-Methylpiperazin-1-yl)-1H-indol-2-yl)-1H-indazol-5-yl)pyridin-3-yl)isobutyramide] | 100 | 196
CN1CCN(c2cccc3[nH]c(-c4n[nH]c5ccc(-c6cncc(NC(=O)C7CCCC7)c6)cc45)cc23)CC1 [Compound 246, N-(5-(3-(4-(4-Methylpiperazin-1-yl)-1H-indol-2-yl)-1H-indazol-5-yl)pyridin-3-yl)cyclopentanecarboxamide] | 100 | 185
CN1CCN(c2cccc3[nH]c(-c4n[nH]c5ccc(-c6cncnc6)cc45)cc23)CC1 [Compound 251, 3-(4-(4-Methylpiperazin-1-yl)-1H-indol-2-yl)-5-(pyrimidin-5-yl)-1H-indazole] | 100 | 165
c1cncc(-c2ccc3[nH]nc(-c4cc5ccccc5[nH]4)c3c2)c1 [Compound 256, 3-(1H-Indol-2-yl)-5-(pyridin-3-yl)-1H-indazole] | 10 | 162
CCNCc1cncc(-c2ccc3[nH]nc(-c4cc5ccccc5[nH]4)c3c2)c1 [Compound 258, N-((5-(3-(1H-Indol-2-yl)-1H-indazol-5-yl)pyridin-3-yl)methyl)ethanamine] | 10 | 532

Now from value to compound, other results behind:

EC50 [nM] | SMILES | Emax [%]
10 | c1cncc(-c2cccc3[nH]c(-c4n[nH]c5ccc(-c6cncc(CN7CCCCC7)c6)cc45)cc23)c1 [Compound 99, 5-(5-(Piperidin-1-ylmethyl)pyridin-3-yl)-3-(4-(pyridin-3-yl)-1H-indol-2-yl)-1H-indazole] | 212
30 | CN(C)Cc1cncc(-c2ccc3[nH]nc(-c4cc5c(-c6ccncc6)cccc5[nH]4)c3c2)c1 [Compound 125, N,N-dimethyl-1-(5-(3-(4-(Pyridin-4-yl)-1H-indol-2-yl)-1H-indazol-5-yl)pyridin-3-yl)methanamine] | 191
30 | CCC(=O)Nc1cncc(-c2ccc3[nH]nc(-c4cc5c(N6CCCCC6)cccc5[nH]4)c3c2)c1 [Compound 169, N-(5-(3-(4-(Piperidin-1-yl)-1H-indol-2-yl)-1H-indazol-5-yl)pyridin-3-yl) propionamide] | 171
10 | CN(C)Cc1cncc(-c2ccc3[nH]nc(-c4cc5c(N6CCCCC6)cccc5[nH]4)c3c2)c1 [Compound 181, N,N-Dimethyl-1-(5-(3-(4-(piperidin-1-yl)-1H-indol-2-yl)-1H-indazol-5-yl)pyridin-3-yl)methanamine] | 205
10 | O=C(Nc1cncc(-c2ccc3[nH]nc(-c4cc5c(N6CCCCC6)cccc5[nH]4)c3c2)c1)C1CC1 [Compound 188, N-(5-(3-(4-(Piperidin-1-yl)-1H-indol-2-yl)-1H-indazol-5-yl)pyridin-3-yl) cyclopropanecarboxamide] | 183
30 | FC1(F)CCN(Cc2cncc(-c3ccc4[nH]nc(-c5cc6c(N7CCCCC7)cccc6[nH]5)c4c3)c2)C1 [Compound 194, 5-(5-((3,3-Difluoropyrrolidin-1-yl)methyl)pyridin-3-yl)-3-(4-(piperidin-1-yl)-1H-indol-2-yl)-1H-indazole] | 160
100 | CN1CCN(c2cccc3[nH]c(-c4n[nH]c5ccc(-c6cncc(N)c6)cc45)cc23)CC1 [Compound 227, 5-(3-(4-(4-Methylpiperazin-1-yl)-1H-indol-2-yl)-1H-indazol-5-yl)pyridin-3-amine] | 166
100 | CN1CCN(c2cccc3[nH]c(-c4n[nH]c5ccc(-c6cncc(CN7CCCCC7)c6)cc45)cc23)CC1 [Compound 239, 3-(4-(4-Methylpiperazin-1-yl)-1H-indol-2-yl)-5-(5-(piperidin-1-ylmethyl)pyridin-3-yl)-1H-indazole] | 198
100 | c1ccc2[nH]c(-c3n[nH]c4ccc(-c5cncc(CN6CCCC6)c5)cc34)cc2c1 [Compound 266, 3-(1H-Indol-2-yl)-5-(5-(pyrrolidin-1-ylmethyl)pyridin-3-yl)-1H-indazole] | 217
30 | CN(C)Cc1cncc(-c2ccc3[nH]nc(-c4cc5c(-c6cccs6)cccc5[nH]4)c3c2)c1 [Compound 349, N,N-Dimethyl-1-(5-(3-(4-(thiophen-2-yl)-1H-indol-2-yl)-1H-indazol-5-yl)pyridin-3-yl)methanamine] | 181
